According to patent US4591582A, “Organophosphorus compounds useful as anticonvulsant agents” (priority 1984, dated 1986):
Where two headings read alike, the source gives them in different places.

Legend:
[1] = tested on: convulsions induced in mice by MES and scMet; conditions: reported, Kupferberg, 1980; cited from earlier work
[2] = tested on: seizures induced by subcutaneous pentylenetetrazol (Metrazol) (scMet); conditions: data taken from Kupferberg, 1980, cited from earlier work; for ED50, scMet: pentylenetetrazol 85 mg/kg s.c.
[3] = tested on: seizures induced by maximal electroshock (MES); conditions: data taken from Kupferberg, 1980; cited from earlier work
[4] = tested on: seizures induced by subcutaneous bicuculline (scBic); conditions: data taken from Kupferberg, 1980, cited from earlier work; for ED50, scBic: bicuculline 2.7 mg/kg s.c.
[5] = tested on: seizures induced by subcutaneous picrotoxin (scPic); conditions: data taken from Kupferberg, 1980, cited from earlier work; for ED50, scPic: picrotoxin 3.2 mg/kg s.c.
[6] = tested on: seizures induced by maximal electroshock (MES); assay: inhibition of seizures induced by maximal electroshock (MES) in mice, intraperitoneal; type: in vivo, male Carworth Farms No. 1 mice; conditions: for ED50, MES / P.I. (protective index, TD50/ED50), MES: i.p.; for factor of greater protection against MES than VPA: relative to VPA (valproic acid)
Description: (§1) All tests were performed on male Carworth Farms No. 1 mice by the Antiepileptic Drug Development Program administered by the Section of Epilepsy, National Institutes of Health, Bethesda, MD 20014, according to previously described procedures [DHEW Publication No. (NIH) 76-1093 (1976), Bethesda, MD]. These involved the inhibition of seizures induced by maximal electroshock (MES) and by three subcutaneously administered chemicals: 85 mg/kg pentylenetetrazol (Metrazol) (scMet), 2.7 mg/kg bicuculline (scBic) and 3.2 mg/kg picrotoxin (scPic). Test compounds were solubilized in polyethylene glycol 400 and administered intraperitoneally in a volume of 0.01 ml/g. The time of peak anticonvulsant activity were determined for II (200 mg/kg), III (300 mg/kg) and IV (300 mg/kg) against MES and for I (200 mg/kg) against scMet with dosing of I-III at 0.5, […]. using four mice per dose. Neurotoxicity was evaluated by placing an animal on a 1 in. diameter knurled plastic rod and rotating at 6 rpm. Failure of the animal to remain on the rod for 1 min. signified neurological toxicity. This testing was performed using groups of eight mice on a time course basis by dosing with I (900 mg/kg), II (400 mg/kg) and III (360 mg/kg) after 0.5, 1, 2 and 4 hrs. and with IV (580 mg/kg) after an additional 6 and 24 hrs. The neurotoxicity was also similarly quantified, with observations taken 30 mins. after dosing, as follows (compound/mg/kg): I, 400, 500, 600, 700, 800, 900; II, 350, 400, 430, 470; III, 230, 260, 300, 360, 420; IV, 150, 300, 400, 500, 580, 600. Quantification of anticonvulsant activity was similarly determined as follows (compound, test, mg/kg), I, MES, 100, 140, 150, 160, 170, 190, 250; I, scMet, 140, 200, 240, 300, 400, 500; I, scBic, 350, 400, 450, 475, 500; I, scPic, 150, 250, 330, 440, 500; II, MES, 130, 170, 200, 230; II, scMet, 150, 180, 230, 300; III, MES, 220, 240, 280, 290, 300; III, scMet, 300, 400, 500, 600; IV, MES, 150, 220, 300, 400, 500, 600; IV, scMet, 300, 410, 470, 600, 760. […] I=dimethyl ester of 3-aminophenylphosphonic acid; II=diethyl ester of 3-aminophenylphosphonic acid; III=diisopropyl ester of 3-aminophenylphosphonic acid; and IV=diethyl-2-acetamidophenylphosphate.

[7] = Rotorod neurotoxicity test (failure to remain on rotating rod, 6 rpm, for 1 min); type: in vivo, male Carworth Farms No. 1 mice; conditions: mouse, in vivo, ip; mice, i.p., 30 mins. after dosing
Description: as §1

[8] = tested on: seizures induced by subcutaneous picrotoxin (scPic); type: in vivo, male Carworth Farms No. 1 mice
Description: as §1, with “600.” for “600. Quantification of anticonvulsant activity was similarly determined as follows (compound, test, mg/kg), I, MES, 100, 140, 150, 160, 170, 190, 250; I, scMet, 140, 200, 240, 300, 400, 500; I, scBic, 350, 400, 450, 475, 500; I, scPic, 150, 250, 330, 440, 500; II, MES, 130, 170, 200, 230; II, scMet, 150, 180, 230, 300; III, MES, 220, 240, 280, 290, 300; III, scMet, 300, 400, 500, 600; IV, MES, 150, 220, 300, 400, 500, 600; IV, scMet, 300, 410, 470, 600, 760.”

neurotoxicity (Rotorod) [9] = assay: Rotorod neurotoxicity test (failure to remain on rotating rod, 6 rpm, for 1 min); type: in vivo, male Carworth Farms No. 1 mice
Description: as §1

[10] = tested on: seizures induced by subcutaneous pentylenetetrazol (Metrazol) (scMet); assay: inhibition of seizures induced by subcutaneous pentylenetetrazol (Metrazol) (scMet), 85 mg/kg; type: in vivo, male Carworth Farms No. 1 mice; conditions: for P.I. (protective index, TD50/ED50), scMet / ED50, scMet: i.p.
Description: as §1

[11] = tested on: seizures induced by subcutaneous bicuculline (scBic); assay: inhibition of seizures induced by subcutaneous bicuculline (scBic), 2.7 mg/kg; type: in vivo, male Carworth Farms No. 1 mice
Description: as §1, with “600.” for “600. Quantification of anticonvulsant activity was similarly determined as follows (compound, test, mg/kg), I, MES, 100, 140, 150, 160, 170, 190, 250; I, scMet, 140, 200, 240, 300, 400, 500; I, scBic, 350, 400, 450, 475, 500; I, scPic, 150, 250, 330, 440, 500; II, MES, 130, 170, 200, 230; II, scMet, 150, 180, 230, 300; III, MES, 220, 240, 280, 290, 300; III, scMet, 300, 400, 500, 600; IV, MES, 150, 220, 300, 400, 500, 600; IV, scMet, 300, 410, 470, 600, 760.”

[12] = tested on: convulsions induced in mice by MES and scMet; assay: time course of protection against convulsions induced by MES and scMet (FIG. 1); type: in vivo; conditions: i.p., 300 mg/kg
Description: FIG. 1 is a graphical representation showing the time course of percent protection by intraperitoneally administered I-IV against seizures induced by maximal electroshock (MES) or subcutaneous pentylenetetrazol (Metrazol) (scMet). Key: ( ) I (dimethyl ester of 3-aminophenylphosphonic acid) 400 mg/kg, scMet: ( ) II (diethyl ester of 3-aminophenylphosphonic acid) 200 mg/kg, MES; ( ) III (diisopropyl ester of 3-aminophenylphosphonic acid) 300 mg/kg, MES: ( ) IV (diethyl-2-acetamidophenylphosphate) 300 mg/kg, MES.
All tests were performed on male Carworth Farms No. 1 mice by the Antiepileptic Drug Development Program administered by the Section of Epilepsy, National Institutes of Health, Bethesda, MD 20014, according to previously described procedures [DHEW Publication No. (NIH) 76-1093 (1976), Bethesda, MD]. […] The time of peak anticonvulsant activity were determined for II (200 mg/kg), III (300 mg/kg) and IV (300 mg/kg) against MES and for I (200 mg/kg) against scMet with dosing of I-III at 0.5, […]. using four mice per dose. Neurotoxicity was evaluated by placing an animal on a 1 in. diameter knurled plastic rod and rotating at 6 rpm. […]

neurotoxicity (Rotorod) [13] = conditions: data taken from Kupferberg, 1980; cited from earlier work
[14] = mice, pentylenetetrazol 85 mg/kg s.c.

| SMILES | time to peak effect [1] [min] | ED50, scMet [2] [mg/kg] | ED50, scBic [4] [mg/kg] | ED50, scPic [5] [mg/kg] | ED50, MES ([6]; mice) [mg/kg] | P.I. (protective index, TD50/ED50), MES ([6]; mice) | TD50 at 0.5 h [7] [mg/kg] | P.I. (protective index, TD50/ED50), scMet ([10]; mice) | also measured |
| --- | --- | --- | --- | --- | --- | --- | --- | --- | --- |
| CCCC(CCC)C(=O)O [VPA, Valproic Acid] | 16 | 148.59 | 359.95 | 387.21 |  |  |  |  | ED50, MES [3]: 217.66 mg/kg |
| CC(C)OP(=O)(OC(C)C)c1cccc(N)c1 [III, diisopropyl ester of 3-aminophenylphosphonic acid] |  |  |  |  | 266.49 | 1.17 | 311 |  |  |
| CCC1(c2ccccc2)C(=O)NC(=O)NC1=O [Phenobarbital] | 60 | 13.17 | 37.72 | 27.51 |  |  |  |  |  |
| COP(=O)(OC)c1cccc(N)c1 [I, dimethyl ester of 3-aminophenylphosphonic acid] |  |  |  |  | 166.46 | 4.08 | 680 | 2.83 | times better than valproic acid against chemically induced seizures ([8]; first of two chemically induced seizures (scPic)): 1.8 times; P.I. (protective index, TD50/ED50), scPic ([8]; mice, i.p., TD50/ED50): 2.02; ED50, scPic ([8]; mouse, in vivo, ip): 336.20 mg/kg; effectiveness against scPic relative to VPA ([8]; relative to VPA): 1.8 times; factor of greater protection against MES than VPA [6]: 2.6 times; factor of greater protection against MES than VPA ([6]; listed as dimethyl ester of 3-aminophenylphosphonic acid): about 2.5 times; neurotoxicity dose level (neurotoxicity (Rotorod) [9]; compared with valproic acid): superior neurotoxicity dose level; ED50, scMet [10, 14]: 239.93 mg/kg; result in scMet test compared with VPA ([10]; relative to VPA): nearly identical results as VPA; activity profile in all three testing procedures compared with trimethadione ([10]; scMet, scBic, scPic): very similar to trimethadione; P.I. (protective index, TD50/ED50), scBic ([11]; mice, i.p., TD50/ED50): 1.56; ED50, scBic ([11]; mice, i.p., bicuculline 2.7 mg/kg s.c.): 435.94 mg/kg; effectiveness against scBic relative to VPA ([11]; relative to VPA): 1.3 times; times better than valproic acid against chemically induced seizures ([11]; second of two chemically induced seizures (scBic)): 1.3 times |
| CCOP(=O)(OCC)Oc1ccccc1NC(C)=O [IV, diethyl-2-acetamidophenylphosphate] |  |  |  |  |  | 1.31 | 458 | 1.03 | ED50 ([6]; Mus musculus, ip, mice): 348 mg/kg; latent protective effect in time course [12]: slight degree of latent protective effect; time course of neurotoxicity (neurotoxicity (Rotorod) [9]; mice, i.p., IV 580 mg/kg, up to 24 hours): high and prolonged toxicity beginning after two hours and persisting at this level from 6 to 24 hours; ED50 ([10]; Mus musculus, ip, mice, pentylenetetrazol 85 mg/kg s.c.): 444 mg/kg |
| CN1C(=O)OC(C)(C)C1=O [Trimethadione] | 60 | 300.45 | 532.12 | 408.09 |  |  |  |  | TD50, Rotorod neurotoxicity test (neurotoxicity (Rotorod) [13]): 819.07 mg/kg; P.I. (protective index, TD50/ED50), scMet [2]: 2.73; P.I. (protective index, TD50/ED50), scBic [4]: 1.54; P.I. (protective index, TD50/ED50), scPic [5]: 2.01 |
| CCC1(C)CC(=O)NC1=O (stereo not drawn) [Ethosuximide] | 30 |  | 459.01 | 242.69 |  |  |  |  |  |
| CCOP(=O)(OCC)c1cccc(N)c1 [II, diethyl ester of 3-aminophenylphosphonic acid] |  |  |  |  | 175.43 | 2.22 | 389 | 1.86 | factor of greater protection against MES than VPA [6]: 1.4 times; ED50, scMet [10, 14]: 208.73 mg/kg |
